≈ marks a conversion by molar mass, not a printed value. Where two headings read alike, the source gives them in different places.
Tests used:
[1] = target: adenine riboswitch RNA (AR); experiment: Isothermal titration calorimetry, adenine riboswitch RNA; assay type: binding; settings: 50 mM K+HEPES, pH 7.5, 100 mM KCl, 10 mM MgCl2, 30° C.
Procedure: Isothermal Titration Calorimetry. […] All experiments were performed with a Microcal MCS ITC instrument at 30° C. […] Titration data was analyzed using Origin ITC software (Microcal Software Inc.) and fit to a single-site binding model.

[2] = system: guanine riboswitch RNA (GR); experiment: Isothermal titration calorimetry, guanine riboswitch RNA; assay type: binding, B. subtilis
Description: Isothermal Titration Calorimetry. RNA for isothermal titration calorimetry (ITC) (Leavitt, S. & Freire, E. Direct measurement of protein binding energetics by isothermal titration calorimetry. Curr Opin Struct Biol 11, 560-6 (2001); Pierce, M., Raman, C. S. & Nall, B. T. Isothermal titration calorimetry of protein-protein interactions. […]

Mycobacterium smegmatis = experiment: Minimal inhibitory concentration, clinically relevant pathogens; assay type: cell-based; settings: Mycolicibacterium smegmatis; pathogen without guanine riboswitch; read-out: Minimal inhibitory concentrations, MS
Haemophilus influenza = experiment: as above; assay type: cell-based; settings: pathogen without guanine riboswitch, read-out: Minimal inhibitory concentrations, HI
[3] = system: methicillin-resistant Staphylococcus aureus; experiment: as above; assay type: cell-based; settings: MRSA, read-out: Minimal inhibitory concentrations, MRSA
Streptococcus pneumoniae = experiment: as above; assay type: cell-based; settings: read-out: Minimal inhibitory concentrations, SP
Bacillus anthracis = experiment: microbe, parasite or virus in culture; assay type: cell-based; settings: read-out: Minimal inhibitory concentrations, BA
[4] = system: guanine riboswitch (aptamer of the xpt-pbuX mRNA); experiment: In-line probing of ligand binding to the guanine riboswitch in vitro; design: species or system B. subtilis; settings: for Kd: high Mg2+ ion concentrations (20 mM MgCl2), read-out: observed dissociation constant (Kd)
Description: The putative anti-terminator interaction is represented by the boxes. Nucleotides that undergo structural alteration as determined by in-line probing (from C) are identified with squares. […] Asterisks denote alterations to the RNA sequence that facilitate in vitro transcription (5′ terminus) or that generate a restriction site (3′ terminus). Nucleotide numbers begin at the first nucleotide of the natural transcription start site. The translation start codon begins at position 186. […] Lanes designated NR, T1 and ^−OH contain RNA that was not reacted, subjected to partial digestion with RNase T1 (G-specific cleavage), or subjected to partial alkaline digestion, respectively. Selected bands corresponding to G-specific cleavage are identified.
Differences in chemical structure relative to guanine are encircled. Numbers on guanine represent the positions of the ring nitrogen atoms.
NR, T1 and OH identify no reaction, nuclease T1 partial digestion, and alkaline partial digestion respectively. In-line probing assays were conducted for ˜1 day, and a dampening of spontaneous RNA cleavage product bands in the J1/2, J2/3 and J3/1 regions are indicative of ligand binding.

purR repressor protein = purR repressor protein (Escherichia coli, UniProt P0ACP7); settings: read-out: observed Kd; E. coli variant of purR repressor; cited from earlier work
[5] = 50 mM K+HEPES, 100 mM KCl, 10 mM MgCl2, 30° C.
[6] = 50 mM K+HEPES, 100 mM KCl, 10 mM MgCl2, 30° C., read-out: Kd

purR repressor protein, sequence (P0ACP7 whole entry): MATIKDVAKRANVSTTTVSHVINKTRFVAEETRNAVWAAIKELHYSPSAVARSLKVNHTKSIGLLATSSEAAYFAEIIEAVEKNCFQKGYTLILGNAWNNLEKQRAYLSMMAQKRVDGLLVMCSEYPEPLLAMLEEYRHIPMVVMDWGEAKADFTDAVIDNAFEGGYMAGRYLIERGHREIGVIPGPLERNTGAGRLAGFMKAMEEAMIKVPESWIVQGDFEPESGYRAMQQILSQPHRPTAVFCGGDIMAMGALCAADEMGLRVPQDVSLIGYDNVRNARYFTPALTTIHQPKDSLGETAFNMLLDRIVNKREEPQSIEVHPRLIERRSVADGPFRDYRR

Row | Structure (SMILES) | Kd [1] | ΔH [1] | ΔS [1] | ΔH [2, 5] | ΔS [2, 5] | Kd [2, 6] | other results
1 | Nc1nc(Br)c2[nH]cnc2n1 [6-Bromoguanine] | 2700 ± 1160 nM | -50.4 ± 0.16 kcal/mol | −141 ± 1.90 Cal/mol · deg | -39.0 ± 7.79 kcal/mol | −103 ± 26.2 cal/mol · deg | 2120 ± 560 nM | 
2 | Nc1nc2nc[nH]c2c(=S)[nH]1 [6-Thioguanine] |  |  |  | -40.6 ± 14.5 kcal/mol | −101 ± 47.5 cal/mol · deg | 73.7 ± 10 nM | 
3 | CSc1nc(N)nc2nc[nH]c12 [6-Methylthioguanine] |  |  |  | -24.5 ± 0.20 kcal/mol | −46.9 ± 0.24 cal/mol · deg | 41.8 ± 3 nM | 
4 | CN[C@H](CC(C)C)C(=O)N[C@H]1C(=O)N[C@@H](CC(N)=O)C(=O)N[C@H]2C(=O)N[C@H]3C(=O)N[C@H](C(=O)N[C@H](C(=O)O)c4cc(O)cc(O)c4-c4cc3ccc4O)[C@H](O)c3ccc(c(Cl)c3)Oc3cc2cc(c3O[C@@H]2O[C@H](CO)[C@@H](O)[C@H](O)[C@H]2O[C@H]2C[C@](C)(N)[C@H](O)[C@H](C)O2)Oc2ccc(cc2Cl)[C@H]1O [Vancomycin] |  |  |  |  |  |  | MIC (Mycobacterium smegmatis): 24 µg/mL (≈ 16.6 µM); MIC (Haemophilus influenza): 64 µg/mL (≈ 44.2 µM); MIC [3]: 1 µg/mL (≈ 0.69 µM); MIC (Streptococcus pneumoniae): 0.25 µg/mL (≈ 0.173 µM); MIC (Bacillus anthracis): 1.5 µg/mL (≈ 1.04 µM)
5 | Nc1nc(N)c2[nH]cnc2n1 [2,6-Diaminopurine] | 17 ± 6 nM | -40.3 ± 2.91 kcal/mol | −97.6 ± 4.00 Cal/mol · deg |  |  |  | 
6 | Nc1cc(N)nc(N)n1 [2,4,6-Triaminopyrimidine] | 18300 ± 1670 nM | -37.7 ± 0.23 kcal/mol | −102 ± 0.70 Cal/mol · deg |  |  |  | 
7 | O=c1[nH]c(=O)c2[nH]cnc2[nH]1 [Xanthine] |  |  |  | -34.6 ± 10.4 kcal/mol | −94.4 ± 34.5 cal/mol · deg | 50500 ± 5800 nM | 
8 | Nc1nc(F)nc2nc[nH]c12 [2-Fluoroadenine] | 4020 ± 1070 nM | -37.4 ± 3.41 kcal/mol | −98.7 ± 11.8 Cal/mol · deg |  |  |  | 
9 | c1ncc2[nH]cnc2n1 [Purine] | 110000 ± 3000 nM | -25.4 ± 0.99 kcal/mol | −65.4 ± 3.00 Cal/mol · deg |  |  |  | 
10 | Nc1nc(N)c(N)c(N)n1 [2,4,5,6-Tetraaminopyrimidine] | 24900 ± 4250 nM | -43.2 ± 3.50 kcal/mol | −122 ± 12.0 Cal/mol · deg |  |  |  | 
11 | Cc1ncnc2nc[nH]c12 [6-Methylpurine] | 25200 ± 1630 nM | -31.5 ± 0.42 kcal/mol | −82.9 ± 1.25 Cal/mol · deg |  |  |  | 
12 | Nc1nc2nn[nH]c2c(=O)[nH]1 [Compound 8-Azaguanine, 8-Azaguanine] |  |  |  | -46.9 ± 9.87 kcal/mol | −121 ± 32.6 cal/mol · deg | 48.7 ± 100 nM | 
13 | COc1nc(N)nc2nc[nH]c12 [O-Methylguanine] |  |  |  | -18.7 kcal/mol | −23.3 cal/mol · deg | 3 nM | 
14 | Nc1nc(Cl)c2nc[nH]c2n1 [6-Chloroguanine] | 721 ± 44 nM | -44.3 ± 7.2 kcal/mol | −98.6 ± 4.39 Cal/mol · deg | -43.6 ± 13.1 kcal/mol | −116 ± 43.2 cal/mol · deg | 856 ± 14 nM | 
15 | Nc1nc2c(c(=O)[nH]1)CC=N2 [7-Deazaguanine] |  |  |  | -42.0 ± 3.72 kcal/mol | −105 ± 11.7 cal/mol · deg | 49 ± 13 nM | 
16 | Nc1ncnc2nc[nH]c12 [Adenine] | 469 ± 41 nM | -34.5 ± 0.05 kcal/mol | −84.8 ± 0.30 Cal/mol · deg |  |  |  | 
17 | Nc1ncc2[nH]cnc2n1 [2-Aminopurine] | 251 ± 26 nM | -31.8 ± 2.64 kcal/mol | −73.9 ± 9.26 Cal/mol · deg | -46.4 ± 2.66 kcal/mol | −129 ± 8.20 cal/mol · deg | 4360 ± 1200 nM | 
18 | Nc1nc2nc[nH]c2c(=O)[nH]1 [Guanine] |  |  |  | -53.5 ± 6.98 kcal/mol | −137 ± 24.8 cal/mol · deg | 4 ± 3 nM | affinity of the riboswitch for guanine over hypoxanthine [4]: tenfold; Kd [4]: 5 nM
19 | O=c1[nH]cnc2nc[nH]c12 [Hypoxanthine] |  |  |  | -31.3 ± 0.01 kcal/mol | −75.3 ± 0.145 cal/mol · deg | 759 ± 66 nM | Kd (purR repressor protein): 9000 nM; Kd [4]: 50 nM; ΔHobs ([2]; 0.25 mM MgCl2, 30° C.): -41.9 ± 0.39 kcal/mol; ΔSobs ([2]; 0.25 mM MgCl2, 30° C.): −113 cal mol^−1 K^−1; Kd ([2]; 0.25 mM MgCl2, 30° C., read-out: Kd): 4000 ± 190 nM; ΔHobs ([2]; 1.0 mM MgCl2, 30° C.): -35.4 ± 0.93 kcal/mol; ΔSobs ([2]; 1.0 mM MgCl2, 30° C.): −91 cal mol^−1 K^−1; Kd ([2]; 1.0 mM MgCl2, 30° C., read-out: Kd): 2990 ± 190 nM; ΔHobs ([2]; 5.0 mM MgCl2, 30° C.): -28.4 ± 0.48 kcal/mol; ΔSobs ([2]; 5.0 mM MgCl2, 30° C.): −67 cal mol^−1 K^−1; Kd ([2]; 5.0 mM MgCl2, 30° C., read-out: Kd): 1340 ± 94 nM; ΔHobs ([2]; 20 mM MgCl2, 30° C.): -33.5 ± 0.43 kcal/mol; ΔSobs ([2]; 20 mM MgCl2, 30° C.): −82 cal mol^−1 K^−1; Kd ([2]; 20 mM MgCl2, 30° C., read-out: Kd): 732 ± 34 nM; Kd ([2]; ITC, more physiological ionic strength (0.25-1 mM Mg2+), read-out: observed Kd): 3000 to 4000 nM

Reference: US20080269258A1, “Riboswitches, Structure-Based Compound Design with Riboswitches, and Methods and Compositions for Use of and with Riboswitches” (priority 2004, published 2008)
